Earlier results in EP1574563B1, “Use of detergent tablets” (UNILEVER N.V., priority 2004, dated 2005).
Where two headings read alike, the source gives them in different places.

[1] = other common materials, by contrast, at 20°C

Row | SMILES | Water Solubility (g/100g) [1] | Water Solubility (g/100g) (highly water-soluble materials, grams of solid required to form a saturated solution in 100 grams of water at 20°C)
1 | O=BO[O-].[Na+] [Sodium perborate anhydrous] | 3.7 g/100g | 
2 | NC(N)=O [Urea] |  | >100 g/100g
3 | O=P(O)(O)OP(=O)(O)OP(=O)(O)O [Sodium tripolyphosphate anhydrous] | 15 g/100g | 
